Consider one molecule from ChEMBL document CHEMBL4184203, “A review on the hybrids of hydroxycinnamic acid as multi-target-directed ligands against Alzheimer's disease” (Bioorg Med Chem, 2018).

This assay has as its target Amyloid-beta precursor protein (Homo sapiens) (UniProt P05067). The experiment in a line: Inhibition of self-mediated aggregation of amyloid beta (1 to 42 residues) (unknown origin) at 10 uM by Thioflavin T based assay relative to control.

Chain of Amyloid-beta precursor protein (Homo sapiens) (P05067 whole entry, the tested form may be a part): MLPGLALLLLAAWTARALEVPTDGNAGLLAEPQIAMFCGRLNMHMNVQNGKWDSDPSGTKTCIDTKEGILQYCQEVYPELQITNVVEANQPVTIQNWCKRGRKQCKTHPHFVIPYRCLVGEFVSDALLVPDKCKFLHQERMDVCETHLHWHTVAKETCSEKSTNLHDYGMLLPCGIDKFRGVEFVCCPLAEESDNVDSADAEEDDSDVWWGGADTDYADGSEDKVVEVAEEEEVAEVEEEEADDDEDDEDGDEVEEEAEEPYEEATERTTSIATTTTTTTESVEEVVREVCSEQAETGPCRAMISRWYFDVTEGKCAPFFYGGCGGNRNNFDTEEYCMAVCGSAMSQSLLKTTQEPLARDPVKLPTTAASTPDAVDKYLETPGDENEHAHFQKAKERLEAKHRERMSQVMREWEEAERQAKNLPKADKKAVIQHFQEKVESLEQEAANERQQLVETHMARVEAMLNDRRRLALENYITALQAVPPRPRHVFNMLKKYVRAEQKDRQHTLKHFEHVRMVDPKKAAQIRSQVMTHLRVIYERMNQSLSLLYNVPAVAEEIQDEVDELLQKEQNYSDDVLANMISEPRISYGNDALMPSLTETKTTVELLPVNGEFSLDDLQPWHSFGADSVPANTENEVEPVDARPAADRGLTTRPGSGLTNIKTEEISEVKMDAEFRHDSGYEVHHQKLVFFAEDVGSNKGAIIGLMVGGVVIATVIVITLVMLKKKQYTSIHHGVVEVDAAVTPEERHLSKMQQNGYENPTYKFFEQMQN

As to `COc1cc(/C=C/C(=O)Nc2ccc(-c3ccc(NC(=O)/C=C/c4ccc(O)c(OC)c4)cc3)cc2)ccc1O`, the inhibition – broadly, how much of the control response was suppressed – was 83.7%.
